According to ChEMBL document CHEMBL1201862, “PubChem BioAssay data set” (2004):
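In this assay, cells in 96-well plates receive the compound at five concentrations for 48 hours. Endpoints are linearly interpolated between the surrounding concentrations. Here, GI50 denotes the concentration required for 50% inhibition of growth.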 Calls of active or inactive are those of the source. No stated cut-off is given here; in the data, active = GI50 up to about 1.1 µM and inactive = higher.

Legend:
Assay in all cases: NCI-60 cell line screen, 48 h
[1] = system: HCT-116
[2] = system: SNB-19
[3] = system: M19-MEL
[4] = system: MOLT-4
[5] = system: SW-620
[6] = system: SK-MEL-5
[7] = system: HCC 2998
[8] = system: A549
[9] = system: OVCAR-8
[10] = system: NCI-H460
[11] = system: RXF 393
[12] = system: M14
[13] = system: HT-29
[14] = system: ACHN
[15] = system: EKVX
[16] = system: CAKI-1
[17] = system: UACC-257
[18] = system: Hs-578T
[19] = system: PC-3
[20] = system: T47D

Measured: GI50

Cc1ccc(S(=O)(=O)c2ccc(C)cc2[N+](=O)[O-])c([N+](=O)[O-])c1
inactive: [1] > 100 µM | [2] > 100 µM | [3] > 100 µM | [4] > 10 µM | [5] > 100 µM | [6] > 100 µM | [7] > 100 µM | [8] > 100 µM | [9] > 100 µM | [10] > 100 µM | [11] > 100 µM | [12] > 100 µM | [13] > 100 µM | [14] 44.9 µM | [15] > 100 µM

COc1cc(/C=N/N=C(\N)NO)c(Cl)cc1O
inactive: [1] 38.6 µM | [2] > 100 µM | [3] 26.6 µM | [4] > 100 µM | [5] 77.8 µM | [6] 51.5 µM | [7] 61.5 µM | [16] 78 µM | [8] 38 µM | [9] 49.5 µM | [10] > 10 µM | [11] 81.5 µM | [13] 44.5 µM | [14] 42.5 µM | [15] 43.8 µM | [17] > 100 µM

[O-][S+]1CSSC1
inactive: [1] 16.2 µM | [2] 41.6 µM | [3] 2.05 µM | [4] 5.36 µM | [5] 15 µM | [6] > 10 µM | [7] 23.2 µM | [16] 28.1 µM | [8] 33.9 µM | [9] 19.6 µM | [11] 19.9 µM | [12] 22.5 µM | [13] 7.64 µM | [14] 25.1 µM | [15] 31.3 µM | [17] 14.8 µM

C=C(COC(C)=O)CC(OC(C)=O)c1ccccc1 (centres undefined)
inactive: [1] > 100 µM | [2] > 100 µM | [3] > 100 µM | [4] 52.2 µM | [5] > 100 µM | [6] > 100 µM | [7] > 100 µM | [8] > 100 µM | [9] > 100 µM | [10] > 100 µM | [11] > 100 µM | [12] > 100 µM | [13] > 100 µM | [14] > 100 µM | [15] > 100 µM

CC(=O)O[C@]12CCCCC1C1(O)C(O)CCCCC12 (some centres undefined)
inactive: [1] > 100 µM | [2] > 100 µM | [3] > 100 µM | [4] > 100 µM | [5] > 100 µM | [6] > 100 µM | [8] > 100 µM | [9] > 100 µM | [10] > 100 µM | [11] > 100 µM | [12] > 100 µM | [13] > 100 µM | [14] 76 µM | [15] > 100 µM | [17] > 100 µM

O=C1NC2(CCCC2)C2CCCCC12O (centres undefined)
inactive: [1] > 100 µM | [2] > 100 µM | [3] > 100 µM | [4] > 100 µM | [5] > 100 µM | [6] > 100 µM | [16] > 100 µM | [8] > 100 µM | [9] > 100 µM | [10] > 100 µM | [11] > 100 µM | [12] > 100 µM | [13] > 100 µM | [14] > 100 µM | [15] > 100 µM | [17] > 100 µM

CC1OC(OC2C(O)COC(OC3C(C)OC(OC4C(OC(=O)[C@]56CCC(C)(C)C[C@@H]5C5=CCC7[C@@]8(C)C[C@H](O)[C@H](OC9OC(CO)C(O)C(OC%10OC(CO)C(O)C(O)C%10O)C9O)[C@@](C)(CO)[C@@H]8CC[C@@]7(C)[C@]5(C)CC6)OCC(O)C4O)C(O)C3O)C2O)C(O)C(O)C1O (some centres undefined)
inactive: [1] 17.7 µM | [2] 16.4 µM | [18] 19.5 µM | [19] 11 µM | [4] 15.5 µM | [5] 14.5 µM | [6] 16 µM | [7] 16.2 µM | [16] 3.19 µM | [8] 14.4 µM | [9] 17 µM | [10] 19 µM | [11] 12.1 µM | [12] 13 µM | [13] 17.2 µM | [20] 16 µM | [14] 17.7 µM | [15] 12.8 µM | [17] 18.3 µM

C#CCN(Cc1ccc2nc(-c3ccccc3)c(N)nc2c1)c1cc(OC)c(OC)c(OC)c1
inactive: [1] 19.2 µM | [2] 40.5 µM | [3] 27 µM | [4] 12.5 µM | [5] 36.5 µM | [6] 11.9 µM | [7] 57.4 µM | [8] 23.2 µM | [9] 30.4 µM | [10] 22 µM | [11] 25.5 µM | [12] 25.5 µM | [13] 23.4 µM | [14] 22.8 µM | [15] 31.2 µM

C#CCOCC12C=CC(O1)C1C(=O)OCC12 (centres undefined)
inactive: [1] > 100 µM | [2] > 100 µM | [18] > 100 µM | [19] > 100 µM | [4] > 100 µM | [5] > 100 µM | [6] > 100 µM | [7] > 100 µM | [16] > 100 µM | [8] > 100 µM | [9] > 100 µM | [10] > 100 µM | [11] > 100 µM | [12] > 100 µM | [13] > 100 µM | [20] > 100 µM | [14] > 100 µM | [15] > 100 µM | [17] > 100 µM

Cn1c(=O)cc(NNc2ccccc2)[nH]c1=O
inactive: [1] 17.8 µM | [2] > 100 µM | [18] > 100 µM | [19] > 100 µM | [4] 37.9 µM | [5] 17.5 µM | [6] > 100 µM | [7] > 100 µM | [16] 15.6 µM | [8] > 100 µM | [9] 20.9 µM | [10] > 100 µM | [11] 18 µM | [12] 29.9 µM | [13] 15.7 µM | [20] 17.6 µM | [14] 36.4 µM | [15] 36.1 µM | [17] 48.3 µM

C=CCOC(=O)N1c2ccc(O)cc2[C@@]23O[C@@]24[C@@H]1C#C/C=C\C#C[C@]3(O)C(OC)(OC)C[C@@H]4C
inactive: [1] 35.2 µM | [2] 58.2 µM | [18] 37.8 µM | [19] 24 µM | [4] 16.3 µM | [5] 52.2 µM | [6] 13.8 µM | [7] 63.1 µM | [16] 53.6 µM | [8] 50.5 µM | [9] 32.5 µM | [10] 24.4 µM | [11] 41.7 µM | [12] 23.8 µM | [13] 21.7 µM | [20] > 100 µM | [14] 17.7 µM | [15] 53.2 µM | [17] 19.1 µM

N#CC(=C1C=CC(=NO)C=C1)c1ccc(Cl)cc1
inactive: [1] 7.52 µM | [2] 42.4 µM | [3] 15 µM | [4] 5.74 µM | [5] 7.21 µM | [6] 7.5 µM | [7] 17.5 µM | [16] 15.1 µM | [8] 18.7 µM | [9] 19.1 µM | [10] 18.2 µM | [11] 16 µM | [12] 16.4 µM | [13] 5.56 µM | [14] 10.6 µM
